{"source": "PubChem BioAssay AID330", "about": "(DTP/NCI, 2004)", "tested_on": "P388 leukemia ip, CD2F1 mice, survival T/C", "test": "NCI In Vivo Anticancer Drug Screen. Data for tumor model P388 Leukemia (intraperitoneal) in CD2F1 (CDF1) mice", "conditions": "endpoint: median survival time, higher = longer survival", "procedure,_shortened": "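Mice carrying the transplanted tumor received test compound or vehicle. Survival was recorded in each group, and the value is the treated-group measurement divided by that of the vehicle-treated control group.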", "key": {"[1]": {"conditions": "dose: 50.0 mg/kg/injection, schedule: Q01DX005 (ip), vehicle: saline"}, "[2]": {"conditions": "dose: 100.0 mg/kg/injection, schedule: Q01DX005 (ip), vehicle: saline"}}, "note": "Several values for one entry are separate records, joined by “and”; a condition that tells them apart may be missing. Equal entries are not always repeated. Toxic doses and inconclusive results are not listed."}
{"smiles": "CS(=O)(=O)CS(=O)(=O)OCCCl", "values": [{"measurement": "T/C", "setting": "dose: 6.25 mg/kg/injection, schedule: Q01DX005 (ip), vehicle: dextrose", "result": "109 % of control"}, {"measurement": "T/C", "setting": "dose: 6.25 mg/kg/injection, schedule: Q01DX005 (ip), vehicle: distilled water + Tween-80", "result": "114 % of control"}, {"measurement": "T/C", "setting": "dose: 6.25 mg/kg/injection, schedule: Q01DX005 (iv), vehicle: dextrose", "result": "109 % of control"}, {"measurement": "T/C", "setting": "dose: 10.0 mg/kg/injection, schedule: Q01DX005 (ip), vehicle: saline", "result": "121 % of control"}, {"measurement": "T/C", "setting": "dose: 12.5 mg/kg/injection, schedule: Q01DX005 (iv), vehicle: dextrose", "result": "118 % of control"}, {"measurement": "T/C", "setting": "dose: 22.0 mg/kg/injection, schedule: Q01DX005 (ip), vehicle: saline", "result": "166 % of control"}, {"measurement": "T/C", "setting": "dose: 25.0 mg/kg/injection, schedule: Q01DX005 (ip), vehicle: dextrose", "result": "154 % of control"}, {"measurement": "T/C", "setting": "dose: 33.0 mg/kg/injection, schedule: Q01DX005 (ip), vehicle: other", "result": "230 % of control"}, {"measurement": "T/C", "setting": "dose: 33.0 mg/kg/injection, schedule: Q01DX005 (ip), vehicle: saline", "result": "198 % of control"}, {"measurement": "T/C", "setting": "dose: 33.0 mg/kg/injection, schedule: Q01DX005 (ip), vehicle: water", "result": "201 % of control"}, {"measurement": "T/C", "setting": "dose: 33.5 mg/kg/injection, schedule: Q01DX005 (ip), vehicle: saline", "result": "209 % of control"}, {"measurement": "T/C", "setting": "dose: 50.0 mg/kg/injection, schedule: Q01DX005 (ip), vehicle: dextrose", "result": "241 % of control and 330 % of control"}, {"measurement": "T/C", "setting": "dose: 50.0 mg/kg/injection, schedule: Q01DX005 (ip), vehicle: distilled water + Tween-80", "result": "250 % of control"}, {"measurement": "T/C", "setting": "dose: 50.0 mg/kg/injection, schedule: Q01DX005 (ip), vehicle: other", "result": "588 % of control"}, {"measurement": "T/C", "setting": "[1]", "result": "245 % of control and 267 % of control"}, {"measurement": "T/C", "setting": "dose: 50.0 mg/kg/injection, schedule: Q01DX005 (ip), vehicle: water", "result": "254 % of control and 285 % of control"}, {"measurement": "T/C", "setting": "dose: 50.0 mg/kg/injection, schedule: Q01DX005 (iv), vehicle: dextrose", "result": "196 % of control"}, {"measurement": "T/C", "setting": "dose: 75.0 mg/kg/injection, schedule: Q01DX005 (ip), vehicle: dextrose", "result": "582 % of control"}, {"measurement": "T/C", "setting": "dose: 75.0 mg/kg/injection, schedule: Q01DX005 (ip), vehicle: other", "result": "588 % of control"}, {"measurement": "T/C", "setting": "dose: 75.0 mg/kg/injection, schedule: Q01DX005 (ip), vehicle: saline", "result": "156 % of control"}, {"measurement": "T/C", "setting": "dose: 75.0 mg/kg/injection, schedule: Q01DX005 (ip), vehicle: water", "result": "294 % of control"}, {"measurement": "T/C", "setting": "dose: 100.0 mg/kg/injection, schedule: Q01DX005 (ip), vehicle: dextrose", "result": "535 % of control"}, {"measurement": "T/C", "setting": "dose: 100.0 mg/kg/injection, schedule: Q01DX005 (ip), vehicle: distilled water + Tween-80", "result": "535 % of control"}, {"measurement": "T/C", "setting": "dose: 100.0 mg/kg/injection, schedule: Q01DX005 (ip), vehicle: other", "result": "588 % of control"}, {"measurement": "T/C", "setting": "[2]", "result": "151 % of control and 200 % of control"}, {"measurement": "T/C", "setting": "dose: 100.0 mg/kg/injection, schedule: Q01DX005 (ip), vehicle: water", "result": "294 % of control"}]}
{"smiles": "CCOC(=O)c1cc2c(=O)oc3ccccc3c2oc1=O", "values": [{"measurement": "T/C", "setting": "dose: 12.5 mg/kg/injection, schedule: Q01DX009 (ip), vehicle: saline with Tween-80", "result": "105 % of control"}, {"measurement": "T/C", "setting": "dose: 25.0 mg/kg/injection, schedule: Q01DX009 (ip), vehicle: saline with Tween-80", "result": "98 % of control"}, {"measurement": "T/C", "setting": "dose: 50.0 mg/kg/injection, schedule: Q01DX009 (ip), vehicle: saline with Tween-80", "result": "100 % of control"}]}
{"smiles": "C=Cn1ccnc1", "values": [{"measurement": "T/C", "setting": "dose: 6.25 mg/kg/injection, schedule: Q01DX009 (ip), vehicle: saline", "result": "100 % of control"}, {"measurement": "T/C", "setting": "dose: 12.5 mg/kg/injection, schedule: Q01DX009 (ip), vehicle: saline", "result": "103 % of control and 123 % of control"}, {"measurement": "T/C", "setting": "dose: 25.0 mg/kg/injection, schedule: Q01DX009 (ip), vehicle: saline", "result": "103 % of control"}, {"measurement": "T/C", "setting": "dose: 50.0 mg/kg/injection, schedule: Q01DX009 (ip), vehicle: saline", "result": "108 % of control and 113 % of control and 114 % of control"}, {"measurement": "T/C", "setting": "dose: 100.0 mg/kg/injection, schedule: Q01DX009 (ip), vehicle: saline", "result": "91 % of control"}]}
{"smiles": "CC(=O)OC1OC(C[Se][As](C)C)C(OC(C)=O)C(OC(C)=O)C1OC(C)=O", "note": "(stereo unspecified)", "values": [{"measurement": "T/C", "setting": "dose: 50.0 mg/kg/injection, schedule: Q01DX009 (ip), vehicle: Klucel (hydroxypropylcellulose) (HPC)", "result": "107 % of control"}, {"measurement": "T/C", "setting": "dose: 100.0 mg/kg/injection, schedule: Q01DX009 (ip), vehicle: Klucel (hydroxypropylcellulose) (HPC)", "result": "120 % of control"}, {"measurement": "T/C", "setting": "dose: 200.0 mg/kg/injection, schedule: Q01DX009 (ip), vehicle: Klucel (hydroxypropylcellulose) (HPC)", "result": "114 % of control"}]}
{"smiles": "O=C(/C=C/c1ccc(Cl)cc1Cl)c1ccc(Cl)cc1", "values": [{"measurement": "T/C", "setting": "dose: 100.0 mg/kg/injection, schedule: Q04DX003 (ip), vehicle: saline with Tween-80", "result": "100 % of control"}, {"measurement": "T/C", "setting": "dose: 200.0 mg/kg/injection, schedule: Q04DX003 (ip), vehicle: saline with Tween-80", "result": "95 % of control"}, {"measurement": "T/C", "setting": "dose: 400.0 mg/kg/injection, schedule: Q04DX003 (ip), vehicle: saline with Tween-80", "result": "90 % of control"}]}
{"smiles": "CNP1(NC)=NP(NC)(NC)=NP(NC)(NC)=NP(NC)(NC)=N1", "values": [{"measurement": "T/C", "setting": "[1]", "result": "115 % of control"}, {"measurement": "T/C", "setting": "[2]", "result": "110 % of control"}, {"measurement": "T/C", "setting": "dose: 200.0 mg/kg/injection, schedule: Q01DX005 (ip), vehicle: saline", "result": "104 % of control"}]}
{"smiles": "CN1CCc2c3c(c4c(c21)CCN4C)CCc1ccccc1-3", "values": [{"measurement": "T/C", "setting": "dose: 50.0 mg/kg/injection, schedule: Q01DX005 (ip), vehicle: Klucel (hydroxypropylcellulose) (HPC)", "result": "104 % of control"}, {"measurement": "T/C", "setting": "dose: 100.0 mg/kg/injection, schedule: Q01DX005 (ip), vehicle: Klucel (hydroxypropylcellulose) (HPC)", "result": "101 % of control"}, {"measurement": "T/C", "setting": "dose: 200.0 mg/kg/injection, schedule: Q01DX005 (ip), vehicle: Klucel (hydroxypropylcellulose) (HPC)", "result": "96 % of control"}]}
